Laboratory results as given in patent US20180235213A1, “PLANT HORMONE APPLICATION” (The State of Israel Ministry of Agriculture & Rural …, priority 2015, published 2018).

Test system: Picual olives
Assay: Application of strigolactone analogs by irrigation to olive seedlings
Assay type: in vivo, Olea europaea L.
Conditions: irrigation to roots twice a week for 6 weeks, 0.03 and 0.3 μM, vs control
Method: The effect of application of various analogues of strigolactone (SL) on olives, given to roots by irrigation was examined. Three different SL analogs; […] The seedlings were rooted from cuttings and hardened, and were about 6 months old at the time of the experiment. Growth soil mixture was used as in the nursery. Each strigolactone analog was dissolved in acetone to give a 5.6 mM solution. This solution was then further diluted with distilled water to 0.03 and 0.3 μM. The diluted solution was injected to the roots twice a week for 6 weeks, and subsequently all the growing buds were counted. For each treatment (treated and control groups) 10 plants were measured. Experiments were repeated three times.

CC1=C[C@H](O/C=C2\Cc3c(n(C)c4ccccc34)C2=O)OC1=O [EGO10]
number of growing buds / lateral branches: repressing effect on axillary branch growth similar to that of GR24
